Earlier results in patent publication US20090239783A1, “SYNERGISTIC EFFECTS OF COMBINED ADMINISTRATION OF MIRTAZAPINE AND A STIMULANT COMPOUND” (priority 2004, published 2009).

Experiments:
[1] = tested on: 5-HT1 receptors
[2] = tested on: muscarinic
[3] = molecular target: histamine (H1) (Homo sapiens, UniProt P35367)
Sequence of histamine (H1) (P35367 whole entry): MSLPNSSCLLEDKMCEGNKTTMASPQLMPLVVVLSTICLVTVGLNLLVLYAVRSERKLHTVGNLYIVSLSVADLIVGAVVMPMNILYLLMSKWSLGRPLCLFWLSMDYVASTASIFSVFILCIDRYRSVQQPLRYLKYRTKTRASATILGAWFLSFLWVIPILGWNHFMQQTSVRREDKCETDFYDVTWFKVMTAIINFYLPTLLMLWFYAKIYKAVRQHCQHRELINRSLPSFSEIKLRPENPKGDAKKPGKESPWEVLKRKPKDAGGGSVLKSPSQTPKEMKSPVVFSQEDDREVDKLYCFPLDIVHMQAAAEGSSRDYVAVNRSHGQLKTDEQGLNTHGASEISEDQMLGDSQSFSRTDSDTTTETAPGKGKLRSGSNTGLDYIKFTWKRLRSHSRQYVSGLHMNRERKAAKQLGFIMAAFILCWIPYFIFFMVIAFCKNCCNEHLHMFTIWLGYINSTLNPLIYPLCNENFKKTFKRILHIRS

- solubility in water: slightly soluble
- affinity for 5-HT1 receptors [1]: weak
- histamine (H1) antagonist properties [3]: very weak
Compound: CN1CCN2c3ncccc3Cc3ccccc3C2C1 (stereo not shown) [Mirtazapine, 1,2,3,4,10,14b-hexahydro-2-methylpyrazino [2,1-a] pyrido [2,3-c] benzazepine]
- muscarinic anticholinergic properties [2]: very weak
